# Assay results from PMC7818921, “Synthesis and biological evaluation of heterocyclic 1,2,4-triazole scaffolds as promising pharmacological agents” (BMC Chemistry, 2021).
# Values joined by “and” are separate entries in the source; they are usually repeats but may differ in a detail not shown here. Equal values may be shown once. Read-outs that look alike come from different tables or passages of the source.
# Key:
# [1] = DPPH free radical scavenging activity; conditions: for IC50: DPPH antioxidant; for % inhibition: DPPH
# Protocol: In the DPPH free radical scavenging activity, compounds (T1–T20) were evaluated for their free radical scavenging activity with ascorbic acid as standard compound. The scavenging effect increased with the increasing concentrations of sample compounds. DPPH is relatively stable nitrogen centered free radical that easily accepts an electron or hydrogen radical to become a stable diamagnetic molecule. DPPH radicals react with suitable reducing agents as a result of which the electrons become paired off forming the corresponding hydrazine. The solution therefore loses colour stoichometrically depending on the number of electrons taken up. […] The sample solutions were incubated for 30 min at room temperature in dark place and after then absorbance was recorded against the blank solution at 517 nm. The relative percent of DPPH scavenging activity was calculated according to the following equation: I%=Acontrol-Asample/Acontrol×100,
# where Acontrol is the absorbance of the control, Asample is the absorbance of the test compound.
# Pseudomonas aeruginosa = assay: In vitro antimicrobial screening, tube dilution method; type: cell-based; conditions: P. aeruginosa, Gram −ve, nutrient broth, 37 ± 1 °C, 24 h, read-out: Minimum inhibitory concentration
# Protocol: (§1) The in vitro antimicrobial screening of the synthesized 1,2,4-triazole derivatives (T1–T20) in μM was determined against Gram-positive Bacillus subtilis, […], Gram-negative Escherichia coli bacterium and fungal strains Candida albicans and Aspergillus niger by tube dilution method using ciprofloxacin, amoxycillin (antibacterial) and fluconazole (antifungal) as reference drugs. DMSO was used to dissolve the reference and sample derivatives (T1–T20). Dilutions were prepared in nutrient broth (I.P.) for bacterial (incubated at 37 ± 1 °C for 24 h) and Sabouraud dextrose broth (I.P.) for fungal species (37 ± 1 °C for 48 h for C. albicans) and (25 ± 1 °C for 7 days for A. niger) (Table 3, Figs. 4 and 5).
# Escherichia coli = assay: as above; type: cell-based; conditions: E. coli, Gram −ve, nutrient broth, 37 ± 1 °C, 24 h, read-out: Minimum inhibitory concentration
# Protocol: as §1
# Bacillus subtilis = assay: as above; type: cell-based; conditions: B. substilis, Gram +ve, nutrient broth, 37 ± 1 °C, 24 h, read-out: Minimum inhibitory concentration
# Protocol: as §1
# Jack Bean Urease = Jack Bean Urease (Canavalia ensiformis, UniProt P07374); assay: biochemical; conditions: for % inhibition: urease
# Protocol: Urease inhibitory potential for each synthesisized compound (T1–T20) was evaluated using Jack Bean Urease by Indophenol method (Table 5, Figs. 9, 10, 11). 250 µl of jack bean urease (4U) was mixed with 250 µl of different synthesized test compounds and standard of different concentrations [dissolved in DMSO/H2O mixture (1:1 v/v)]. The mixture was pre-incubated for 1 h at 37 °C in test tubes. 2 ml of 100 mM phosphate buffer (pH 6.8) containing 500 mM urea and 0.002% phenol red as an indicator were added in sample test tubes after pre incubation and again incubated at room temperature. Absorbance of reaction mixture was recorded by ELISA at 570 nm. Ammonium carbonate increased the pH of phosphate buffer from 6.8 to 7.7 which was produced from urea by urease enzyme and the end peak was measured by the colour of phenol red indicator [16].
# The percentage inhibition of urease enzyme was calculated by using following formula: I%=Acontrol-Asample/Acontrol×100,
# where Acontrol is the absorbance of the control; Asample is the absorbance of the test compound.
# [2] = system: HCT116 (human colon cancer cells); assay: Anticancer evaluation, SRB assay; type: cell-based
# Protocol: HCT116 (human colon cancer cells) were seeded at 2500 cells/well (96 well plate), allowed to attach overnight, exposed to the respective compounds for 72 h and subjected to SRB assay (570 nm). Data represent mean IC50 of at least triplicates. The compounds were all dissolved in DMSO as stock of 100 mg/ml. […] The highest concentration of each compound tested (100 μg/ml) contained only 0.1% DMSO.
# Aspergillus niger = assay: In vitro antifungal screening, tube dilution method; type: cell-based; conditions: A. niger, Sabouraud dextrose broth, 25 ± 1 °C, 7 days, read-out: Minimum inhibitory concentration
# Protocol: as §1
# Candida albicans = assay: as above; type: cell-based; conditions: C. albican, Sabouraud dextrose broth, 37 ± 1 °C, 48 h, read-out: Minimum inhibitory concentration
# Protocol: as §1
# [3] = Homo sapiens, HCT-116, HCT116, 72 h, SRB, mean of at least triplicates
# [4] = HCT116, 72 h, SRB, mean of at least triplicates
# Jack Bean Urease, sequence (P07374 whole entry, looked up): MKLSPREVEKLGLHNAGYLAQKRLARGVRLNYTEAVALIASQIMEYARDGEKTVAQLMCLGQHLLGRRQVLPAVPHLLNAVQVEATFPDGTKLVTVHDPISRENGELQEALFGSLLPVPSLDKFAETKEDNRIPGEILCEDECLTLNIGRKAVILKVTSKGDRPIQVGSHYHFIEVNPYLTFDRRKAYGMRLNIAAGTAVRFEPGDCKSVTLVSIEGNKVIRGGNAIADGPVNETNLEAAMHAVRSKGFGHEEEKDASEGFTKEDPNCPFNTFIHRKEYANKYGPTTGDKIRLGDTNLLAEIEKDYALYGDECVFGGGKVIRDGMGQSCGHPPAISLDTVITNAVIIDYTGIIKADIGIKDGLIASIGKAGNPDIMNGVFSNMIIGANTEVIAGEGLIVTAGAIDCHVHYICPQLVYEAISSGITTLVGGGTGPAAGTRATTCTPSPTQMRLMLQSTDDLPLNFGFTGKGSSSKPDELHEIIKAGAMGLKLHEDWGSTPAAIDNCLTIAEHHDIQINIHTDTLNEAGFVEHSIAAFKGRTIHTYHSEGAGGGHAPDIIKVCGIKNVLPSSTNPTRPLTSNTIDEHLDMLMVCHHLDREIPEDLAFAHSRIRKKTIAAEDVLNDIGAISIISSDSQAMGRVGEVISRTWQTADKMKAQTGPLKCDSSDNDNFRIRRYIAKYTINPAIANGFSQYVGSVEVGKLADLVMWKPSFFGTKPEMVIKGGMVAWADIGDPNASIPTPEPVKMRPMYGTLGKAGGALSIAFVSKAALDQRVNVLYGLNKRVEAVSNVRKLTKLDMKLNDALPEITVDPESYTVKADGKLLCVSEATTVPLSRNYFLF
Structure (SMILES),IC50 [1] [µg/mL],% inhibition ([1]; 25 µg/ml) [%],% inhibition ([1]; 50 µg/ml) [%],% inhibition ([1]; 75 µg/ml) [%],% inhibition ([1]; 100 µg/ml) [%],MIC (Pseudomonas aeruginosa; Pseudomonas aeruginosa) [µM],MIC (Escherichia coli; Escherichia coli) [µM],MIC (Bacillus subtilis; Bacillus subtilis) [µM],IC50 (Jack Bean Urease) [µM],inhibition at 25 µg/mL (Jack Bean Urease) [%],inhibition at 50 µg/mL (Jack Bean Urease) [%],inhibition at 75 µg/mL (Jack Bean Urease) [%],inhibition at 100 µg/mL (Jack Bean Urease) [%],"IC50 [2, 3] [µM]",MIC (Aspergillus niger),"MIC (Aspergillus niger; Aspergillus niger, 168 h) [µM]",MIC (Candida albicans; Candida albicans) [µM],MIC (Pseudomonas aeruginosa) [µM],IC50 (Jack Bean Urease; urease inhibition) [µg/mL],% inhibition (Jack Bean Urease; 25 µg/ml) [%],further results
CCCCCCCCCCCCCCCc1nnc(S)n1N=Cc1cc(OC)c(OC)c(OC)c1 [Compound T5],39.13,42.34,55.67,68.98,78.12,12.3,24.7,24.7,108,23.3,44.4,70.9,90.9,> 198,99.0 µM,99,12.3,,,,
CCCCCCCCCCCCCCCc1nnc(S)n1N=Cc1ccc(OC)c(O)c1 [Compound T6],45.66,31.67,53.67,77.78,92.67,54.2,54.2,108,102,38.5,50.3,65.6,80.9,112,217.0 µM,217,108,,,,melting point: 189 to 192 °C
CCCCCCCCCCCCCCCc1nnc(S)n1N=Cc1ccccc1O [Compound T7],38.54,46.75,52.56,60.56,70.41,29,116,116,121,24,46.9,76.1,91.9,3.25,,232,232,29.0,,,"melting point: 181 to 184 °C; IC50 ([2]; Homo sapiens, HCT-116, HCT116, value given in dose-response figure): 1.4 µg/mL"
CCCCCCCCCCCCCCCc1nnc(S)n1N=Cc1c(O)ccc2ccccc12 [Compound T18],,39.59,68.57,80.13,95.89,,,,,,,,,,104 µM and 104.0 µM,,,52.0,54.30,40.90,"MIC (Escherichia coli): 104.0 µM; MIC (Bacillus subtilis): 104.0 µM; % inhibition (Jack Bean Urease; 50 µg/ml): 46.79%; % inhibition (Jack Bean Urease; 75 µg/ml): 55.89%; % inhibition (Jack Bean Urease; 100 µg/ml): 67.9%; IC50 [2, 4]: > 208 µM; MIC (Candida albicans): 208 µM and 208.0 µM"
CCCCCCCCCCCCCCCc1nnc(S)n1N=Cc1ccco1 [Compound T20],46.34,33.45,53.67,70.46,92.67,,,,,,,,,,247.1 µM,,,123.5,52.34,28.98,"MIC (Escherichia coli): 61.7 µM; MIC (Bacillus subtilis): 61.7 µM; % inhibition (Jack Bean Urease; 50 µg/ml): 49.09%; % inhibition (Jack Bean Urease; 75 µg/ml): 69.09%; % inhibition (Jack Bean Urease; 100 µg/ml): 81.90%; IC50 [2, 4]: > 247 µM; MIC (Candida albicans): 247.1 µM"
"OC(Cn1cncn1)(Cn1cncn1)c1ccc(F)cc1F [Fluconazole, reference compound]",,,,,,,,,,,,,,,,20.4,40.8,,,,
"NC(N)=S [Thiourea, reference compound]",,,,,,,,,,,,,,,,,,,54.25,29.98,% inhibition (Jack Bean Urease; 50 µg/ml): 46.76%; % inhibition (Jack Bean Urease; 75 µg/ml): 67.78%; % inhibition (Jack Bean Urease; 100 µg/ml): 76.78%
